Assay results reported in the supplement of paper PMC10307832.

Assays:
Assay in all cases: relative viability (nuclei count vs DMSO), 5 days (fraction); higher = more cells survive
[1] = compound: O=C(CCCCCCNC(=O)c1cnc(N(c2ccccc2)c2ccccc2)nc1)NO [Ricolinostat] + CC(C)C[C@H](NC(=O)[C@H](Cc1ccccc1)NC(=O)c1cnccn1)B(O)O [Bortezomib] (partner 0.002 µM)
Procedure, shortened: (§1)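 Lung cancer cell lines in 1536-well plates were dosed by pin tool the day after seeding, either with one drug alone or with a fixed anchor-drug dose plus five library-drug doses (not always all listed) in √10 steps. After 5 days, cells were fixed and their nuclei stained in one step (final 0.05% Triton X-100, 1% formaldehyde, 1 ug/ml Hoechst), then counted on 4× images. Relative viability is the nuclei count in treated wells divided by that in vehicle wells. Values are medians of duplicate plates.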

[2] = compound: C1=CC=C(C(=C1)C2=CC=C(C=C2)C3=CSC4=C3C(=C(C(=O)N4)C#N)O)O + COc1cccc2cc(-c3nc([C@H]4CC[C@H](C(=O)O)CC4)n4ncnc(N)c34)[nH]c12 [OSI-027] (partner 0.5 µM)
Procedure, shortened: as §1

[3] = compound: C1=CC=C(C(=C1)C2=CC=C(C=C2)C3=CSC4=C3C(=C(C(=O)N4)C#N)O)O + N=C(N)NC(=N)NCCc1ccccc1 [Phenformin] (partner 250 µM)
Procedure, shortened: as §1

TGX 221 + Bortezomib = compound: CC1=CN2C(=O)C=C(N=C2C(=C1)C(C)NC3=CC=CC=C3)N4CCOCC4 [TGX 221] + CC(C)C[C@H](NC(=O)[C@H](Cc1ccccc1)NC(=O)c1cnccn1)B(O)O [Bortezomib] (partner 0.002 µM)
Procedure, shortened: as §1

| Cell Line | relative viability ([1]; first compound 0.253 µM) | relative viability ([1]; first compound 0.8 µM) | relative viability ([1]; first compound 2.53 µM) | relative viability ([2]; first compound 0.08 µM) | relative viability ([2]; first compound 0.253 µM) | relative viability ([2]; first compound 0.8 µM) | relative viability ([2]; first compound 2.53 µM) | relative viability ([2]; first compound 8 µM) | relative viability ([3]; first compound 0.08 µM) | relative viability ([3]; first compound 0.253 µM) | relative viability ([3]; first compound 0.8 µM) | relative viability ([3]; first compound 2.53 µM) | relative viability ([3]; first compound 8 µM) | relative viability (TGX 221 + Bortezomib; first compound 0.253 µM) | relative viability (TGX 221 + Bortezomib; first compound 0.8 µM) | relative viability (TGX 221 + Bortezomib; first compound 2.53 µM) | relative viability (TGX 221 + Bortezomib; first compound 8 µM) | relative viability ([1]; first compound 0.08 µM) | relative viability (TGX 221 + Bortezomib; first compound 0.08 µM) |
| --- | --- | --- | --- | --- | --- | --- | --- | --- | --- | --- | --- | --- | --- | --- | --- | --- | --- | --- | --- |
| NCI-H2347 | 1.1 | 0.979 | 0.713 | 0.454 | 0.572 | 0.348 | 0.419 | 0.378 | 0.265 | 0.429 | 0.496 | 0.342 | 0.419 | 0.899 | 0.886 | 0.877 | 0.752 | – | – |
| RERF-LC-KJ | 1 | 1.11 | 1.02 | 0.562 | 0.755 | 0.561 | 0.551 | 0.457 | 0.397 | 0.492 | 0.412 | 0.454 | 0.352 | 1.06 | 1.27 | 0.961 | 1.01 | 1.15 | 0.908 |
| BEN | 0.694 | 0.567 | 0.609 | 0.305 | 0.303 | 0.497 | 0.313 | 0.286 | 0.282 | 0.289 | 0.265 | 0.278 | 0.274 | 0.694 | 0.528 | 0.756 | 0.915 | 0.781 | 0.773 |
| 201T | 1.11 | 1.09 | 1.12 | 0.709 | 0.665 | 0.795 | 0.699 | 0.531 | 0.335 | 0.451 | 0.46 | 0.462 | 0.434 | 1.15 | 1.08 | 1.05 | 0.996 | 0.989 | – |
| NCI-H647 | 1.06 | 0.948 | 0.421 | 0.694 | 0.578 | 0.568 | 0.628 | 0.362 | 0.285 | 0.615 | 0.586 | 0.555 | 0.349 | 0.66 | 0.926 | 0.676 | 0.616 | 0.877 | 0.929 |
| NCI-H441 | 0.341 | 0.342 | 0.25 | 0.647 | 0.669 | 0.565 | 0.822 | 0.646 | 0.706 | 1.01 | 1.03 | 0.927 | 0.633 | 0.772 | 0.416 | 0.566 | 0.389 | 0.596 | 0.515 |
| PC-3 [JPC-3] | 0.791 | 0.791 | 0.829 | 0.637 | 0.777 | 0.704 | 0.93 | 0.719 | 0.452 | 0.454 | 0.44 | 0.488 | 0.516 | 0.73 | 0.883 | 0.735 | 0.851 | 0.832 | 0.759 |
| NCI-H2126 | 1.07 | 1.1 | 1.02 | 0.639 | 0.718 | 0.654 | 0.737 | 0.708 | 0.504 | 0.575 | 0.471 | 0.527 | 0.621 | 1.08 | 1.06 | 1.06 | 1.08 | 0.95 | 1.09 |
| HCC-15 | 0.987 | 0.983 | 0.925 | 0.667 | 0.735 | 0.699 | 0.704 | 0.571 | 0.407 | 0.516 | 0.496 | 0.494 | 0.387 | 0.953 | 0.93 | 1.04 | 1.06 | 0.897 | 1.02 |
| NCI-H2085 | 1.15 | 0.969 | 0.765 | 0.866 | 1.02 | 0.661 | 0.627 | 0.512 | 0.765 | 0.951 | 0.665 | 0.685 | 0.568 | 0.856 | 0.889 | 0.809 | 0.724 | – | 1.05 |
